How the values were obtained:
[1] = biological target: BRD4 (Homo sapiens (Human), UniProt O60885); assay: TR-FRET in-vitro binding assay for BRD4; conditions: 45 nM His-Brd4(44-477), acetyl-histone H4 (AcK 5, 8, 12, 16) peptide
Outline: (§1)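 Binding is detected by TR-FRET following incubation for 35 minutes at 30° C.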

[2] = biological target: BRD2 (Homo sapiens (Human), UniProt P25440); assay: TR-FRET in-vitro binding assay for BRD2; conditions: 45 nM His-Brd2(60-472), acetyl-histone H4 (AcK 5, 8, 12, 16) peptide
Sequence of BRD2 (P25440 60-472): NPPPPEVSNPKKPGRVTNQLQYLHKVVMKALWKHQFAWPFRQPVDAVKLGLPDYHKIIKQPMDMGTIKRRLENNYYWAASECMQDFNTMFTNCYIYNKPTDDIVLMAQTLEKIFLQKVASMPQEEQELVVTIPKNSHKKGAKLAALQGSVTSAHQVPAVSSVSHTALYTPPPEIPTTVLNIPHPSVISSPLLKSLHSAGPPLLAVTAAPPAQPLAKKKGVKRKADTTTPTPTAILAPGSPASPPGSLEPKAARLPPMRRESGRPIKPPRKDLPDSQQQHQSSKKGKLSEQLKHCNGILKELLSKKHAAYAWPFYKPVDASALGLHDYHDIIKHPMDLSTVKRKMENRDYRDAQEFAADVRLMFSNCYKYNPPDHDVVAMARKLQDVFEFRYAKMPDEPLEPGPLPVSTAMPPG
Description: TR-FRET In-Vitro Binding Assays for BRD2, BRD3, and BRD4: All assays were performed in 384-well microtiter plates. […] Liquid handling and incubation steps were done on an Innovadyne Nanodrop Express equipped with a robotic arm (Thermo CatX, Perkin Elmer/Caliper Twister II) and an incubator (Liconic STX40, Thermo Cytomat 2C450). The assay plates were prepared by addition of 50 nl per well of compound solution in 90% DMSO HummingBird nanodispenser (Zinsser Analytic). […] Reactions were incubated at 30° C. for 35 minutes. […] After 35 minutes incubation at 30° C., plates were measured in a Perkin Elmer EnVision multilabel reader. […] The stock solutions were stored at […] if not used immediately. For the test procedure the vials were defrosted and identified by a scanner whereby a working sheet was generated that guided the subsequent working steps. Compound dilutions were made in 96 well plates. This format enabled the assay of maximally […] at 8 concentrations (single points) including 4 reference compounds, if desired (known BET inhibitors from the prior art, for this and other assays of the type disclosed herein). The dilution protocol included the production of “pre-dilution plates”, “master plates” and “assay plates”. Polypropylene 96-well plates were used as pre-dilution plates. […] All dilution steps were done on a HamiltonSTAR robot. […] Identical “assay plates” were then prepared by pipetting 50 nL each of compound dilutions of the “master plates” into 384-well “assay plates” by means of a HummingBird 384-channel dispenser. These plates were used directly for the assay which was performed in a total volume of 13.55 μL.

[3] = biological target: BRD3 (Homo sapiens (Human), UniProt Q15059); assay: TR-FRET in-vitro binding assay for BRD3; conditions: 45 nM His-Brd3(20-477), acetyl-histone H4 (AcK 5, 8, 12, 16) peptide
Sequence of BRD3 (Q15059 20-477): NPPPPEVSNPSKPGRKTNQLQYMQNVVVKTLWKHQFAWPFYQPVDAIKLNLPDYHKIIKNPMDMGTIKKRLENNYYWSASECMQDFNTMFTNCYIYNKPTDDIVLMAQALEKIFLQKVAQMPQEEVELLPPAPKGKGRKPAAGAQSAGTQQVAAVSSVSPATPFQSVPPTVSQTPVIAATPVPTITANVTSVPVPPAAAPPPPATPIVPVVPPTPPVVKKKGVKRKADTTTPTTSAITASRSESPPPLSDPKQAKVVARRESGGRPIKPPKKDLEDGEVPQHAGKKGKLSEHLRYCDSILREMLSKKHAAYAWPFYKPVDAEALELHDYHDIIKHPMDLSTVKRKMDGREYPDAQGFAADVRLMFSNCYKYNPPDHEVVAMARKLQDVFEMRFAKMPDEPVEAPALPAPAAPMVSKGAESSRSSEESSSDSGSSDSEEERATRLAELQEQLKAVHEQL
Outline: as §1

[4] = biological target: CREBBP (Homo sapiens (Human), UniProt Q92793); assay: AlphaScreen in-vitro binding assay for CREBBP; conditions: 324 nM His-CREBBP (1081-1197), acetyl-histone H4 (AcK 5, 8, 12) peptide
Sequence of CREBBP (Q92793 1081-1197): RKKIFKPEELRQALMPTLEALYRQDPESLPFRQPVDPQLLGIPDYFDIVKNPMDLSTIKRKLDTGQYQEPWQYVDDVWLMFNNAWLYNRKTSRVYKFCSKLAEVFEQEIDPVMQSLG
Outline: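 IC50 values were derived by non-linear regression of percent inhibition across 8 compound concentrations. Protein was His-tagged CREBBP bromodomain (1081-1197), peptide acetyl-histone H4 (AcK 5, 8, 12), in HEPES pH 7.5 buffer. Read-out was AlphaScreen with Ni-chelate acceptor and streptavidin donor beads, 35 min at 30° C then 60 min at RT.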

[5] = tested on: MV-4-11; assay: Cell growth inhibition assay (CellTiter-Glo), MV-4-11; assay type: cell-based, human; conditions: MV-4-11 cells, 4 days; for GI50: Homo sapiens, MV4-11, 96 h, half-maximal growth inhibition; for MV-4-11 TGI: total growth inhibition
Outline: (§2)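 Seed cells in their own media; add compound as 3-fold dilutions from 10 μM (0.1% DMSO final). Incubate 4 days at 37 °C, 5% CO2, then add CTG and read luminescence. Subtract no-cell background, correct to a day 0 plate, and fit IC50 and TGI.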

[6] = tested on: THP-1; assay: Cell growth inhibition assay (CellTiter-Glo), THP-1; assay type: cell-based, human; conditions: THP-1 cells, 4 days; for GI50: Homo sapiens, 96 h, half-maximal growth inhibition; for THP-1 TGI: total growth inhibition
Outline: as §2

[7] = tested on: K-562; assay: Cell growth inhibition assay (CellTiter-Glo), K-562; assay type: cell-based, human; conditions: K-562 cells, 4 days; for GI50: Homo sapiens, K562, 96 h, half-maximal growth inhibition; for K-562 TGI: total growth inhibition
Outline: as §2

SMILES | IC50 [1] [nM] | IC50 [2] [nM] | IC50 [3] [nM] | IC50 [4] [nM] | GI50 [5] [nM] | MV-4-11 TGI [5] [nM] | GI50 [6] [nM] | THP-1 TGI [6] [nM] | GI50 [7] [nM] | K-562 TGI [7] [nM]
COCn1cc(C)c2c1C(c1ccc(Cl)cc1)N(c1cc(C)c3nnn(C)c3n1)C2=O (stereo not shown) [Example 2, 6-(4-chlorophenyl)-5-(3,7-dimethyl-3H-[1,2,3]triazolo[4,5-b]pyridin-5-yl)-1-(methoxymethyl)-3-methyl-5,6-dihydropyrrolo[3,4-b]pyrrol-4(1H)-one] | 12 | 23 | 16 | > 37000 | 7.66 | 19.7 | 15.1 | 34.7 | 62.1 | >10000
Cc1c[nH]c2c1C(=O)N(c1cc(C)c3nnc(C)n3c1)C2c1ccc(Cl)cc1 (stereo not shown) [Example 3, 6-(4-chlorophenyl)-5-(3,8-dimethyl-[1,2,4]triazolo[4,3-a]pyridin-6-yl)-3-methyl-5,6-dihydropyrrolo[3,4-b]pyrrol-4(1H)-one] | 14 | 24 | 16 | 8200 | 7.68 | 18.75 | 15.7 | 36.9 | 55.4 | >10000
Cc1cn(C2CN(C)C2)c2c1C(=O)N(c1cc(C)c3nnc(C)n3c1)C2c1ccc(Cl)cc1 (stereo not shown) [Example 5, 6-(4-chlorophenyl)-5-(3,8-dimethyl-[1,2,4]triazolo[4,3-a]pyridin-6-yl)-3-methyl-1-(1-methylazetidin-3-yl)-5,6-dihydropyrrolo[3,4-b]pyrrol-4(1H)-one] | 24 | 45 | 25 | 6300 | 6.3 | 13.05 | 12.1 | 36.2 | 47.8 | >10000
Cc1cc(N2C(=O)c3cc(-c4cccc(=O)n4C)n(C)c3C2c2ccc(Cl)cc2)cn(C)c1=O (stereo not shown) [Example 48, 6-(4-chlorophenyl)-5-(1,5-dimethyl-6-oxo-1,6-dihydropyridin-3-yl)-1-methyl-2-(1-methyl-6-oxo-1,6-dihydropyridin-2-yl)-5,6-dihydropyrrolo[3,4-b]pyrrol-4(1H)-one] | 110 | 91 | 76 | – | 150 | 270 | 711 | 1160 | 1680 | >10000
Cc1cc(N2C(=O)c3cc(-c4ccnc(C(F)(F)F)n4)n(C)c3C2c2ccc(Cl)cc2)cn(C)c1=O (stereo not shown) [Example 49, 6-(4-chlorophenyl)-5-(1,5-dimethyl-6-oxo-1,6-dihydropyridin-3-yl)-1-methyl-2-(2-(trifluoromethyl)pyrimidin-4-yl)-5,6-dihydropyrrolo[3,4-b]pyrrol-4(1H)-one] | 83 | 76 | 75 | – | 92.3 | 134 | 169 | 301 | 386 | >10000
Cc1cc(N2C(=O)c3cc(-c4cccc(N(C)C)n4)n(C)c3C2c2ccc(Cl)cc2)cn(C)c1=O (stereo not shown) [Example 51, 6-(4-chlorophenyl)-5-(1,5-dimethyl-6-oxo-1,6-dihydropyridin-3-yl)-2-(6-(dimethylamino)pyridin-2-yl)-1-methyl-5,6-dihydropyrrolo[3,4-b]pyrrol-4(1H)-one] | 33 | 32 | 38 | – | 88.1 | 116 | 104 | 165 | 449 | >10000
Cc1cc(N2C(=O)c3cc(-c4cnc(N(C)C)nc4)n(C)c3C2c2ccc(Cl)cc2)cn(C)c1=O (stereo not shown) [Example 57, 6-(4-chlorophenyl)-5-(1,5-dimethyl-6-oxo-1,6-dihydropyridin-3-yl)-2-(2-(dimethylamino)pyrimidin-5-yl)-1-methyl-5,6-dihydropyrrolo[3,4-b]pyrrol-4(1H)-one] | 59 | 50 | 54 | – | 37.6 | 59.8 | 76 | 126 | 200 | >10000
COc1ccc(-c2cc3c(n2C)C(c2ccc(Cl)cc2)N(c2cc(C)c(=O)n(C)c2)C3=O)cn1 (stereo not shown) [Example 58, 6-(4-chlorophenyl)-5-(1,5-dimethyl-6-oxo-1,6-dihydropyridin-3-yl)-2-(6-methoxypyridin-3-yl)-1-methyl-5,6-dihydropyrrolo[3,4-b]pyrrol-4(1H)-one] | 42 | 40 | 34 | – | 18.1 | 33.8 | 33.2 | 70.4 | 133 | >10000
Cc1cc(N2C(=O)c3cc(-c4cccn(C)c4=O)n(C4CC4)c3C2c2ccc(Cl)cc2)cn(C)c1=O (stereo not shown) [Example 65, 6-(4-chlorophenyl)-1-cyclopropyl-5-(1,5-dimethyl-6-oxo-1,6-dihydropyridin-3-yl)-2-(1-methyl-2-oxo-1,2-dihydropyridin-3-yl)-5,6-dihydropyrrolo[3,4-b]pyrrol-4(1H)-one] | 220 | 120 | 200 | – | 80.4 | 128.5 | 96.2 | 167.5 | 270 | >10000
Cn1cc(-c2cc3c(n2C2CC2)C(c2ccc(Cl)cc2)N(c2cc(Cl)c(=O)n(C)c2)C3=O)ccc1=O (stereo not shown) [Example 66, 5-(5-chloro-1-methyl-6-oxo-1,6-dihydropyridin-3-yl)-6-(4-chlorophenyl)-1-cyclopropyl-2-(1-methyl-6-oxo-1,6-dihydropyridin-3-yl)-5,6-dihydropyrrolo[3,4-b]pyrrol-4(1H)-one] | – | 52 | – | 240 | 43.9 | 87.45 | 76.4 | 135 | 250 | >10000
COc1ccc(C2c3c(ccn3C)C(=O)N2c2cc(Cl)c(=O)n(C)c2)cc1 (stereo not shown) [Example 92, 5-(5-chloro-1-methyl-6-oxo-1,6-dihydropyridin-3-yl)-6-(4-methoxyphenyl)-1-methyl-5,6-dihydropyrrolo[3,4-b]pyrrol-4(1H)-one] | 890 | 850 | 690 | – | 655 | 1495 | 680 | 2405 | 2870 | >10000
CC(=O)Nc1cn(C)c2c1C(=O)N(c1cc(C)c3nnc(C)n3c1)C2c1ccc(Cl)cc1 (stereo not shown) [Example 103, N-(6-(4-chlorophenyl)-5-(3,8-dimethyl-[1,2,4]triazolo[4,3-a]pyridin-6-yl)-1-methyl-4-oxo-1,4,5,6-tetrahydropyrrolo[3,4-b]pyrrol-3-yl)acetamide] | – | 31 | – | 5200 | 19.9 | 52.6 | 45 | 119 | 241 | >10000
Cc1cc(N2C(=O)c3c(C4CC4)cn(C4CN(C)C4)c3C2c2ccc(Cl)cc2)nc2c1nnn2C (stereo not shown) [Example 106, 6-(4-chlorophenyl)-3-cyclopropyl-5-(3,7-dimethyl-3H-[1,2,3]triazolo[4,5-b]pyridin-5-yl)-1-(1-methylazetidin-3-yl)-5,6-dihydropyrrolo[3,4-b]pyrrol-4(1H)-one] | 12 | 13 | 12 | – | 0.522 | 2.23 | 1.16 | 3.335 | 5.68 | >10000

Source: patent US9550796B2, “Pyrrolopyrrolone derivatives and their use as BET inhibitors” (NOVARTIS AG, priority 2013, dated 2017)
